Test results as given in the supplement of paper PMC10883282.

What was measured:
Test in all cases: relative viability vs DMSO control (72 h) (fraction); higher = more viable cells
G401 = tested on: G401
Outline: (§1)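 Sarcoma cell lines in 384-well plates, seeded to reach 80–90% confluence, were given compound after 24 h and kept 72 h at 37 °C, 5% CO2, with 0.1% DMSO vehicle and a 5 µM positive control. Relative viability came from ATPLite as percent growth, averaged over up to triplicate wells. On the rescaled values, 1 equals full and 0 equals none.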

HS729 = tested on: HS729
Outline: as §1

HT1080 = tested on: HT1080
Outline: as §1

KHOS-240S = tested on: KHOS-240S
Outline: as §1

KHOS-NP = tested on: KHOS-NP
Outline: as §1

RD-ES = tested on: RD-ES
Outline: as §1

RD = tested on: RD
Outline: as §1

SK-LMS-1 = tested on: SK-LMS-1
Outline: as §1

SW1353 = tested on: SW1353
Outline: as §1

SW684 = tested on: SW684
Outline: as §1

SW872 = tested on: SW872
Outline: as §1

SYO-1 = tested on: SYO-1
Outline: as §1

Cn1ncnc1[C@H]1c2n[nH]c(=O)c3cc(F)cc(c23)N[C@@H]1c1ccc(F)cc1 [Talazoparib]
Settings	relative viability
G401, 0.00017 µM	0.95
G401, 0.00051 µM	1.02
G401, 0.00152 µM	0.935
G401, 0.00457 µM	0.937
G401, 0.01372 µM	0.881
G401, 0.04115 µM	0.813
G401, 0.1235 µM	0.764
G401, 0.3704 µM	0.716
G401, 1.111 µM	0.663
G401, 3.333 µM	0.613
G401, 10 µM	0.555
HS729, 0.00017 µM	1.05
HS729, 0.00051 µM	1.05
HS729, 0.00152 µM	1.03
HS729, 0.00457 µM	1.02
HS729, 0.01372 µM	1.02
HS729, 0.04115 µM	1.03
HS729, 0.1235 µM	0.961
HS729, 0.3704 µM	0.949
HS729, 1.111 µM	0.895
HS729, 3.333 µM	0.8536
HS729, 10 µM	0.812
HT1080, 0.00017 µM	1.06
HT1080, 0.00051 µM	1.05
HT1080, 0.00152 µM	1.05
HT1080, 0.00457 µM	1.037
HT1080, 0.01372 µM	1
HT1080, 0.04115 µM	0.955
HT1080, 0.1235 µM	0.8497
HT1080, 0.3704 µM	0.797
HT1080, 1.111 µM	0.662
HT1080, 3.333 µM	0.577
HT1080, 10 µM	0.554
KHOS-240S, 0.00017 µM	0.9825
KHOS-240S, 0.00051 µM	1.01
KHOS-240S, 0.00152 µM	0.982
KHOS-240S, 0.00457 µM	0.969
KHOS-240S, 0.01372 µM	0.948
KHOS-240S, 0.04115 µM	0.921
KHOS-240S, 0.1235 µM	0.872
KHOS-240S, 0.3704 µM	0.824
KHOS-240S, 1.111 µM	0.677
KHOS-240S, 3.333 µM	0.524
KHOS-240S, 10 µM	0.457
KHOS-NP, 0.00017 µM	1.02
KHOS-NP, 0.00051 µM	1.04
KHOS-NP, 0.00152 µM	1.03
KHOS-NP, 0.00457 µM	1.04
KHOS-NP, 0.01372 µM	1.02
KHOS-NP, 0.04115 µM	1.01
KHOS-NP, 0.1235 µM	1
KHOS-NP, 0.3704 µM	0.968
KHOS-NP, 1.111 µM	0.837
KHOS-NP, 3.333 µM	0.675
KHOS-NP, 10 µM	0.607
RD, 0.00017 µM	0.904
RD, 0.00051 µM	0.945
RD, 0.00152 µM	0.923
RD, 0.00457 µM	0.869
RD, 0.01372 µM	0.842
RD, 0.04115 µM	0.789
RD, 0.1235 µM	0.72
RD, 0.3704 µM	0.718
RD, 1.111 µM	0.629
RD, 3.333 µM	0.586
RD, 10 µM	0.577
RD-ES, 0.00017 µM	0.976
RD-ES, 0.00051 µM	0.95
RD-ES, 0.00152 µM	0.904
RD-ES, 0.00457 µM	0.844
RD-ES, 0.01372 µM	0.609
RD-ES, 0.04115 µM	0.191
RD-ES, 0.1235 µM	0.0431
RD-ES, 0.3704 µM	0.0199
RD-ES, 1.111 µM	0.0127
RD-ES, 3.333 µM	0.00913
RD-ES, 10 µM	0.0143
SK-LMS-1, 0.00017 µM	1.01
SK-LMS-1, 0.00051 µM	1.05
SK-LMS-1, 0.00152 µM	0.999
SK-LMS-1, 0.00457 µM	0.999
SK-LMS-1, 0.01372 µM	0.982
SK-LMS-1, 0.04115 µM	0.956
SK-LMS-1, 0.1235 µM	0.9584
SK-LMS-1, 0.3704 µM	0.874
SK-LMS-1, 1.111 µM	0.833
SK-LMS-1, 3.333 µM	0.795
SK-LMS-1, 10 µM	0.778
SW684, 0.00017 µM	0.965
SW684, 0.00051 µM	1.01
SW684, 0.00152 µM	0.988
SW684, 0.00457 µM	1.05
SW684, 0.01372 µM	0.986
SW684, 0.04115 µM	0.969
SW684, 0.1235 µM	0.963
SW684, 0.3704 µM	0.932
SW684, 1.111 µM	0.893
SW684, 3.333 µM	0.875
SW684, 10 µM	0.865
SW872, 0.00017 µM	1.02
SW872, 0.00051 µM	1.04
SW872, 0.00152 µM	1.04
SW872, 0.00457 µM	1.01
SW872, 0.01372 µM	0.99
SW872, 0.04115 µM	0.971
SW872, 0.1235 µM	0.905
SW872, 0.3704 µM	0.799
SW872, 1.111 µM	0.628
SW872, 3.333 µM	0.441
SW872, 10 µM	0.34
SW1353, 0.00017 µM	1.06
SW1353, 0.00051 µM	1.09
SW1353, 0.00152 µM	1.07
SW1353, 0.00457 µM	1.03
SW1353, 0.01372 µM	0.999
SW1353, 0.04115 µM	0.919
SW1353, 0.1235 µM	0.889
SW1353, 0.3704 µM	0.814
SW1353, 1.111 µM	0.753
SW1353, 3.333 µM	0.679
SW1353, 10 µM	0.633
SYO-1, 0.00017 µM	0.974
SYO-1, 0.00051 µM	0.961
SYO-1, 0.00152 µM	0.885
SYO-1, 0.00457 µM	0.743
SYO-1, 0.01372 µM	0.582
SYO-1, 0.04115 µM	0.466
SYO-1, 0.1235 µM	0.336
SYO-1, 0.3704 µM	0.193
SYO-1, 1.111 µM	0.081
SYO-1, 3.333 µM	0.0279
SYO-1, 10 µM	0.0191
